Publication PMC5218480 (PLoS ONE, 2017)

Test system: MV-4-11 cells
Assay: Gene expression microarray analysis (Affymetrix PrimeView) and GSEA
Format: cell-based, human
Design: RFU PODN (11730768_x_at) / Fold change /veh PODN (11730768_x_at) / RFU LINC00158 (11744669_a_at) / Fold change /veh LINC00158 (11744669_a_at) / RFU DUSP10 (11751237_a_at) / Fold change /veh DUSP10 (11751237_a_at) / RFU ID3 (11757404_x_at) / Fold change /veh ID3 (11757404_x_at) / RFU PLEKHG5 (11737974_s_at) / Fold change /veh PLEKHG5 (11737974_s_at) / RFU LRRC4B (11730491_at) / Fold change /veh LRRC4B (11730491_at) / RFU GIMAP4 (11747438_a_at) / Fold change /veh GIMAP4 (11747438_a_at) / RFU KRT8 (11758183_x_at) / Fold change /veh KRT8 (11758183_x_at) / RFU CNN1 (11734310_a_at) / Fold change /veh CNN1 (11734310_a_at) / RFU VPS37D (11726825_at) / Fold change /veh VPS37D (11726825_at) / RFU C10orf10 (11716522_x_at) / Fold change /veh C10orf10 (11716522_x_at) / RFU KIR2DL2 /// KIR2DL4 /// KIR2DL5A /// KIR2DL5B /// KIR2DS1 /// KIR2DS2 /// KIR2DS3 /// KIR2DS4 /// KIR3DL3 /// KIR3DL3 /// KIR3DS1 (11738374_at) / Fold change /veh KIR2DL2 /// KIR2DL4 /// KIR2DL5A /// KIR2DL5B /// KIR2DS1 /// KIR2DS2 /// KIR2DS3 /// KIR2DS4 /// KIR3DL3 /// KIR3DL3 /// KIR3DS1 (11738374_at) / RFU C1QL1 (11718748_at) / Fold change /veh C1QL1 (11718748_at) / RFU TMPRSS4 (11747572_a_at) / Fold change /veh TMPRSS4 (11747572_a_at) / RFU HAMP (11756126_x_at) / Fold change /veh HAMP (11756126_x_at) / RFU RNFT2 (11725882_a_at) / Fold change /veh RNFT2 (11725882_a_at) / RFU NR4A2 (11747474_a_at) / Fold change /veh NR4A2 (11747474_a_at) / RFU ABCC12 (11746883_a_at) / Fold change /veh ABCC12 (11746883_a_at) / RFU TMEM136 (11760407_x_at) / Fold change /veh TMEM136 (11760407_x_at) / RFU CLDN22 /// WWC2 (11732394_at) / Fold change /veh CLDN22 /// WWC2 (11732394_at) / RFU HLA-DPB1 (11760878_x_at) / Fold change /veh HLA-DPB1 (11760878_x_at) / RFU SPINT1 (11716480_a_at) / Fold change /veh SPINT1 (11716480_a_at) / RFU GAP43 (11754022_s_at) / Fold change /veh GAP43 (11754022_s_at) / RFU A4GNT (11735810_at) / Fold change /veh A4GNT (11735810_at) / RFU PRB3 (11715151_x_at) / Fold change /veh PRB3 (11715151_x_at) / RFU TUBB4B (11761932_at) / Fold change /veh TUBB4B (11761932_at) / RFU CAPN14 (11732068_a_at) / Fold change /veh CAPN14 (11732068_a_at) / RFU TMCC2 (11721928_a_at) / Fold change /veh TMCC2 (11721928_a_at) / RFU IRGQ (11745062_a_at) / Fold change /veh IRGQ (11745062_a_at) / RFU FAM174B (11720279_a_at) / Fold change /veh FAM174B (11720279_a_at) / RFU TMPRSS4 (11748680_a_at) / Fold change /veh TMPRSS4 (11748680_a_at) / RFU FAM212B (11763350_a_at) / Fold change /veh FAM212B (11763350_a_at) / RFU PLEKHG5 (11743358_a_at) / Fold change /veh PLEKHG5 (11743358_a_at) / RFU ZSCAN30 (11745921_a_at) / Fold change /veh ZSCAN30 (11745921_a_at) / RFU CMKLR1 (11741424_a_at) / Fold change /veh CMKLR1 (11741424_a_at) / RFU LOC101060620 /// MAPK8IP1 (11723275_at) / Fold change /veh LOC101060620 /// MAPK8IP1 (11723275_at) / RFU SPTSSB (11747773_x_at) / Fold change /veh SPTSSB (11747773_x_at) / RFU PRSS12 (11739890_at) / Fold change /veh PRSS12 (11739890_at) / RFU BIN1 (11741810_x_at) / Fold change /veh BIN1 (11741810_x_at) / RFU WNT11 (11732464_a_at) / Fold change /veh WNT11 (11732464_a_at) / RFU C10orf10 (11716521_a_at) / Fold change /veh C10orf10 (11716521_a_at) / RFU C5orf56 (11738089_at) / Fold change /veh C5orf56 (11738089_at) / RFU CYB561 (11721691_x_at) / Fold change /veh CYB561 (11721691_x_at) / RFU ANKRD19P (11752326_a_at) / Fold change /veh ANKRD19P (11752326_a_at) / RFU OR2T12 /// OR2T33 /// OR2T8 (11738714_s_at) / Fold change /veh OR2T12 /// OR2T33 /// OR2T8 (11738714_s_at) / RFU VCAN (11748164_a_at) / Fold change /veh VCAN (11748164_a_at) / RFU JSRP1 (11732532_at) / Fold change /veh JSRP1 (11732532_at) / RFU KRTAP10-11 (11738290_x_at) / Fold change /veh KRTAP10-11 (11738290_x_at) / RFU MYO3A (11730013_a_at) / Fold change /veh MYO3A (11730013_a_at) / RFU EBF3 (11725865_a_at) / Fold change /veh EBF3 (11725865_a_at) / RFU CAMK2N1 (11719241_x_at) / Fold change /veh CAMK2N1 (11719241_x_at) / RFU C5orf56 (11738088_a_at) / Fold change /veh C5orf56 (11738088_a_at) / RFU OLFML3 (11715873_a_at) / Fold change /veh OLFML3 (11715873_a_at) / RFU LOC100653217 /// NTM (11731650_a_at) / Fold change /veh LOC100653217 /// NTM (11731650_a_at) / RFU MAPK11 (11762145_a_at) / Fold change /veh MAPK11 (11762145_a_at) / RFU FIZ1 (11724087_x_at) / Fold change /veh FIZ1 (11724087_x_at) / RFU OASL (11726364_x_at) / Fold change /veh OASL (11726364_x_at) / RFU SOX15 (11748057_x_at) / Fold change /veh SOX15 (11748057_x_at) / RFU CD79A (11719716_a_at) / Fold change /veh CD79A (11719716_a_at) / RFU HIST1H1D (11736915_at) / Fold change /veh HIST1H1D (11736915_at) / RFU CASKIN2 (11723855_a_at) / Fold change /veh CASKIN2 (11723855_a_at) / RFU LOC730098 (11760151_x_at) / Fold change /veh LOC730098 (11760151_x_at) / RFU OR4N2 (11742367_at) / Fold change /veh OR4N2 (11742367_at) / RFU PRRT2 (11749266_a_at) / Fold change /veh PRRT2 (11749266_a_at) / RFU SNX32 (11753110_a_at) / Fold change /veh SNX32 (11753110_a_at) / RFU CDHR5 (11726645_a_at) / Fold change /veh CDHR5 (11726645_a_at) / RFU RCAN1 (11760418_a_at) / Fold change /veh RCAN1 (11760418_a_at) / RFU FAM167A (11723789_a_at) / Fold change /veh FAM167A (11723789_a_at) / RFU FAM26E (11764081_at) / Fold change /veh FAM26E (11764081_at) / RFU ISYNA1 (11749810_s_at) / Fold change /veh ISYNA1 (11749810_s_at) / RFU ACY1 (11761880_at) / Fold change /veh ACY1 (11761880_at) / RFU 11764098_at / Fold change /veh 11764098_at / RFU SAMD14 (11745864_x_at) / Fold change /veh SAMD14 (11745864_x_at) / RFU NPB (11741838_a_at) / Fold change /veh NPB (11741838_a_at) / RFU TMPRSS6 (11731388_a_at) / Fold change /veh TMPRSS6 (11731388_a_at) / RFU KRTAP10-2 (11738614_at) / Fold change /veh KRTAP10-2 (11738614_at) / RFU ARHGAP8 /// PRR5-ARHGAP8 (11727945_x_at) / Fold change /veh ARHGAP8 /// PRR5-ARHGAP8 (11727945_x_at) / RFU KRTAP5-7 /// NADSYN1 (11734609_at) / Fold change /veh KRTAP5-7 /// NADSYN1 (11734609_at) / RFU RASL12 (11751679_a_at) / Fold change /veh RASL12 (11751679_a_at) / RFU CDKN2B (11736163_a_at) / Fold change /veh CDKN2B (11736163_a_at) / RFU PRF1 (11729649_at) / Fold change /veh PRF1 (11729649_at) / RFU, ZNF638 /// ZNF638-IT1 / Fold change vs veh, ZNF638 /// ZNF638-IT1 / RFU, PANK3 / Fold change vs veh, PANK3 / RFU, SH3YL1 / Fold change vs veh, SH3YL1 / RFU, ZEB2 / Fold change vs veh, ZEB2 / RFU, NRIP1 / Fold change vs veh, NRIP1 / RFU, PTTG1IP / Fold change vs veh, PTTG1IP / RFU, CAPN2 / Fold change vs veh, CAPN2 / RFU, MED14 / Fold change vs veh, MED14 / RFU, SNORA58 / Fold change vs veh, SNORA58 / RFU, C1orf63 / Fold change vs veh, C1orf63 / RFU, LRRFIP1 / Fold change vs veh, LRRFIP1 / RFU, NDUFAF7 / Fold change vs veh, NDUFAF7 / RFU, SLC12A2 / Fold change vs veh, SLC12A2 / RFU, IBTK / Fold change vs veh, IBTK / RFU, ESF1 / Fold change vs veh, ESF1 / Fold change vs veh, TMEM50B / RFU, TAOK1 / Fold change vs veh, TAOK1 / RFU, ACBD3 / Fold change vs veh, ACBD3 / RFU, TMA16 / Fold change vs veh, TMA16 / RFU, RWDD3 / Fold change vs veh, RWDD3 / RFU, BCAT1 / Fold change vs veh, BCAT1 / RFU, EDEM3 / Fold change vs veh, EDEM3 / RFU, TMEM33 / Fold change vs veh, TMEM33 / RFU, WDR75 / Fold change vs veh, WDR75 / RFU, AHCTF1 / Fold change vs veh, AHCTF1 / RFU, TFRC / Fold change vs veh, TFRC / RFU, ZDHHC17 / Fold change vs veh, ZDHHC17 / RFU, NOM1 / Fold change vs veh, NOM1 / RFU, ARL8B / Fold change vs veh, ARL8B / RFU, ZBTB11 / Fold change vs veh, ZBTB11 / RFU, TAMM41 / Fold change vs veh, TAMM41 / RFU, KIAA1704 /// LOC100996395 / Fold change vs veh, KIAA1704 /// LOC100996395 / RFU, ING1 / Fold change vs veh, ING1 / RFU, TRMT61B / Fold change vs veh, TRMT61B / RFU, FUBP3 / Fold change vs veh, FUBP3 / RFU, TP53 / Fold change vs veh, TP53 / RFU, TNKS2 / Fold change vs veh, TNKS2 / RFU, ZFP14 / Fold change vs veh, ZFP14 / RFU, ACTR2 / Fold change vs veh, ACTR2 / RFU, PPP3R1 / Fold change vs veh, PPP3R1 / RFU, PIK3R1 / Fold change vs veh, PIK3R1 / RFU, HNRNPA1 / Fold change vs veh, HNRNPA1 / RFU, RNF170 / Fold change vs veh, RNF170 / RFU, ZNF28 / Fold change vs veh, ZNF28 / RFU, RNGTT / Fold change vs veh, RNGTT / RFU, OGT / Fold change vs veh, OGT / RFU, BRD1 / Fold change vs veh, BRD1 / RFU, MARS / Fold change vs veh, MARS / RFU, ZNF655 / Fold change vs veh, ZNF655 / RFU, FAHD1 / Fold change vs veh, FAHD1 / RFU, BDP1 / Fold change vs veh, BDP1 / RFU, LRRCC1 / Fold change vs veh, LRRCC1 / RFU, ARID1A / Fold change vs veh, ARID1A / RFU, ZNF146 / Fold change vs veh, ZNF146 / RFU, ZNF330 / Fold change vs veh, ZNF330 / RFU, GPN3 / Fold change vs veh, GPN3 / RFU, C9orf123 / Fold change vs veh, C9orf123 / RFU, N4BP2L2 / Fold change vs veh, N4BP2L2 / RFU, ARFIP1 / Fold change vs veh, ARFIP1 / RFU, FAM179B / Fold change vs veh, FAM179B / RFU, BCL10 / Fold change vs veh, BCL10 / RFU, UHRF1BP1L / Fold change vs veh, UHRF1BP1L / RFU, BET1 / Fold change vs veh, BET1 / RFU, CNOT2 / Fold change vs veh, CNOT2 / RFU, ZNF268 / Fold change vs veh, ZNF268 / Fold change vs veh, ZNF507 / RFU, DGCR2 / Fold change vs veh, DGCR2 / RFU, WDSUB1 / Fold change vs veh, WDSUB1 / Fold change vs veh, HSP90B1 /// MIR3652 / RFU, ADSS / Fold change vs veh, ADSS / RFU, GK / Fold change vs veh, GK / RFU, ZNF148 / Fold change vs veh, ZNF148 / RFU, TAF9 / Fold change vs veh, TAF9 / RFU, SLC1A5 / Fold change vs veh, SLC1A5 / RFU, SLMO2 / Fold change vs veh, SLMO2 / RFU, ABCC4 / Fold change vs veh, ABCC4 / RFU, LOC101060439 /// RAP1B / Fold change vs veh, LOC101060439 /// RAP1B / RFU, RFX7 / Fold change vs veh, RFX7 / RFU, GTPBP10 / Fold change vs veh, GTPBP10 / RFU, CNEP1R1 / Fold change vs veh, CNEP1R1 / RFU, BIVM-ERCC5 /// ERCC5 / Fold change vs veh, BIVM-ERCC5 /// ERCC5 / RFU, ILF3 / Fold change vs veh, ILF3 / RFU 11762660_at / Fold change /veh 11762660_at / RFU VCAN (11757783_s_at) / Fold change /veh VCAN (11757783_s_at) / RFU DDX43 (11728927_at) / Fold change /veh DDX43 (11728927_at) / RFU KRT8 (11758188_x_at) / Fold change /veh KRT8 (11758188_x_at) / RFU NKD1 (11759106_at) / Fold change /veh NKD1 (11759106_at) / RFU SRD5A1 (11742802_a_at) / Fold change /veh SRD5A1 (11742802_a_at) / RFU TPSAB1 /// TPSB2 (11721975_s_at) / Fold change /veh TPSAB1 /// TPSB2 (11721975_s_at) / RFU GSTM3 (11746129_a_at) / Fold change /veh GSTM3 (11746129_a_at) / RFU IL23R (11737362_x_at) / Fold change /veh IL23R (11737362_x_at) / RFU TMEM51 (11727254_a_at) / Fold change /veh TMEM51 (11727254_a_at) / RFU PIWIL2 (11732686_x_at) / Fold change /veh PIWIL2 (11732686_x_at) / RFU ORM1 (11744905_x_at) / Fold change /veh ORM1 (11744905_x_at) / RFU CCDC152 (11743942_at) / Fold change /veh CCDC152 (11743942_at) / RFU ECM1 (11717891_a_at) / Fold change /veh ECM1 (11717891_a_at) / RFU IL23R (11748794_a_at) / Fold change /veh IL23R (11748794_a_at) / RFU TNFAIP8L3 (11732012_x_at) / Fold change /veh TNFAIP8L3 (11732012_x_at) / RFU MBOAT4 (11741988_at) / Fold change /veh MBOAT4 (11741988_at) / RFU 11764193_at / Fold change /veh 11764193_at / RFU TMEM53 (11763286_at) / Fold change /veh TMEM53 (11763286_at) / RFU MAGEB2 (11727129_at) / Fold change /veh MAGEB2 (11727129_at) / RFU TMEM200A (11744735_a_at) / Fold change /veh TMEM200A (11744735_a_at) / RFU CCDC152 (11751479_a_at) / Fold change /veh CCDC152 (11751479_a_at) / RFU FAM211A (11726209_a_at) / Fold change /veh FAM211A (11726209_a_at) / RFU RGS16 (11746705_a_at) / Fold change /veh RGS16 (11746705_a_at) / RFU VCAN (11755009_s_at) / Fold change /veh VCAN (11755009_s_at) / RFU RHOB (11743442_s_at) / Fold change /veh RHOB (11743442_s_at) / RFU RGS16 (11720943_a_at) / Fold change /veh RGS16 (11720943_a_at) / RFU RGS16 (11720944_at) / Fold change /veh RGS16 (11720944_at) / RFU, VPS4B / Fold change vs veh, VPS4B / RFU, CREB1 / Fold change vs veh, CREB1 / RFU, DNAJC13 / Fold change vs veh, DNAJC13 / RFU, GNAQ / Fold change vs veh, GNAQ / RFU, CDK5R1 / Fold change vs veh, CDK5R1 / RFU, ZRANB3 / Fold change vs veh, ZRANB3 / RFU, CUL4A / Fold change vs veh, CUL4A / RFU, CCNY / Fold change vs veh, CCNY / RFU, UFL1 / Fold change vs veh, UFL1 / RFU, COG3 / Fold change vs veh, COG3 / RFU, DIAPH2 / Fold change vs veh, DIAPH2 / RFU, SKA2 / Fold change vs veh, SKA2 / RFU, AFF3 / Fold change vs veh, AFF3 / RFU, LMF1 / Fold change vs veh, LMF1 / RFU, IPO11 / Fold change vs veh, IPO11 / RFU, DFFB / Fold change vs veh, DFFB / RFU, FOXP1 / Fold change vs veh, FOXP1 / RFU, CARD8 / Fold change vs veh, CARD8 / RFU, STRN3 / Fold change vs veh, STRN3 / RFU, ADK / Fold change vs veh, ADK / RFU, RASSF2 / Fold change vs veh, RASSF2 / RFU, WIPF1 / Fold change vs veh, WIPF1 / RFU, LARP1B / Fold change vs veh, LARP1B / RFU, RASA1 / Fold change vs veh, RASA1 / RFU, RB1 / Fold change vs veh, RB1 / RFU, PPFIA1 / Fold change vs veh, PPFIA1 / RFU, MAT2A / Fold change vs veh, MAT2A / RFU, CCT5 / Fold change vs veh, CCT5 / RFU, WDR92 / Fold change vs veh, WDR92 / RFU, CUX1 / Fold change vs veh, CUX1 / RFU, TTC7A / Fold change vs veh, TTC7A / RFU, TMEM135 / Fold change vs veh, TMEM135 / RFU, DEPTOR / Fold change vs veh, DEPTOR / RFU, CPM / Fold change vs veh, CPM / RFU, DNAJB6 / Fold change vs veh, DNAJB6 / RFU, CACNA2D3 / Fold change vs veh, CACNA2D3 / RFU, DTX4 / Fold change vs veh, DTX4 / RFU, TFCP2 / Fold change vs veh, TFCP2 / RFU, GMCL1 /// GMCL1P1 / Fold change vs veh, GMCL1 /// GMCL1P1 / RFU, AEBP2 / Fold change vs veh, AEBP2 / RFU, SNHG1 /// SNORD22 /// SNORD25 /// SNORD26 /// SNORD27 /// SNORD28 /// SNORD29 /// SNORD31 / Fold change vs veh, SNHG1 /// SNORD22 /// SNORD25 /// SNORD26 /// SNORD27 /// SNORD28 /// SNORD29 /// SNORD31 / Fold change (Aza/veh), C12orf56 (ProbeSet 11735607_a_at) / Fold change (ACY-1035/veh), C12orf56 (ProbeSet 11735607_a_at) / Fold change (Aza/veh), FGFR1OP (ProbeSet 11751329_s_at) / Fold change (ACY-1035/veh), FGFR1OP (ProbeSet 11751329_s_at) / Fold change (Aza/veh), VPS36 (ProbeSet 11739960_a_at) / Fold change (ACY-1035/veh), VPS36 (ProbeSet 11739960_a_at) / RFU SYPL1 (11715823_x_at) / Fold change /veh SYPL1 (11715823_x_at) / RFU IGFBP7 (11715501_s_at) / Fold change /veh IGFBP7 (11715501_s_at) / RFU REEP3 (11722064_at) / Fold change /veh REEP3 (11722064_at) / RFU IGLL1 (11728026_x_at) / Fold change /veh IGLL1 (11728026_x_at): dose or concentration left out as unconfirmed
Details: ProbeSet 11743567_s_at; LIST B

## Nc1ccc(-c2cccs2)cc1NC(=O)c1ccc2c(c1)cc(C1CC1)n2CCN1CCOCC1 [ACY-1035]
  Fold change vs veh, ACBD3: 0.99
